15 compounds from patent US20240109853A1 (Shanghai Yao Yuan Biotechnology Co., Ltd., priority 2020, published 2024) can be followed below.

Where two headings read alike, the source gives them in different places.

This assay deals with ALPK1 (Homo sapiens (Human), UniProt Q96QP1). In words: ALPK1 in vitro kinase assay (HTRF of TIFA phosphorylation). Type of assay: biochemical. On the technique in general: Time-resolved FRET reads energy transfer from a long-lived donor to a nearby acceptor.
[1] abbreviates: ALPK1 2 nM, TIFA substrate, ADP-Heptose activator, HTRF readout.

ALPK1, sequence (Q96QP1 whole entry): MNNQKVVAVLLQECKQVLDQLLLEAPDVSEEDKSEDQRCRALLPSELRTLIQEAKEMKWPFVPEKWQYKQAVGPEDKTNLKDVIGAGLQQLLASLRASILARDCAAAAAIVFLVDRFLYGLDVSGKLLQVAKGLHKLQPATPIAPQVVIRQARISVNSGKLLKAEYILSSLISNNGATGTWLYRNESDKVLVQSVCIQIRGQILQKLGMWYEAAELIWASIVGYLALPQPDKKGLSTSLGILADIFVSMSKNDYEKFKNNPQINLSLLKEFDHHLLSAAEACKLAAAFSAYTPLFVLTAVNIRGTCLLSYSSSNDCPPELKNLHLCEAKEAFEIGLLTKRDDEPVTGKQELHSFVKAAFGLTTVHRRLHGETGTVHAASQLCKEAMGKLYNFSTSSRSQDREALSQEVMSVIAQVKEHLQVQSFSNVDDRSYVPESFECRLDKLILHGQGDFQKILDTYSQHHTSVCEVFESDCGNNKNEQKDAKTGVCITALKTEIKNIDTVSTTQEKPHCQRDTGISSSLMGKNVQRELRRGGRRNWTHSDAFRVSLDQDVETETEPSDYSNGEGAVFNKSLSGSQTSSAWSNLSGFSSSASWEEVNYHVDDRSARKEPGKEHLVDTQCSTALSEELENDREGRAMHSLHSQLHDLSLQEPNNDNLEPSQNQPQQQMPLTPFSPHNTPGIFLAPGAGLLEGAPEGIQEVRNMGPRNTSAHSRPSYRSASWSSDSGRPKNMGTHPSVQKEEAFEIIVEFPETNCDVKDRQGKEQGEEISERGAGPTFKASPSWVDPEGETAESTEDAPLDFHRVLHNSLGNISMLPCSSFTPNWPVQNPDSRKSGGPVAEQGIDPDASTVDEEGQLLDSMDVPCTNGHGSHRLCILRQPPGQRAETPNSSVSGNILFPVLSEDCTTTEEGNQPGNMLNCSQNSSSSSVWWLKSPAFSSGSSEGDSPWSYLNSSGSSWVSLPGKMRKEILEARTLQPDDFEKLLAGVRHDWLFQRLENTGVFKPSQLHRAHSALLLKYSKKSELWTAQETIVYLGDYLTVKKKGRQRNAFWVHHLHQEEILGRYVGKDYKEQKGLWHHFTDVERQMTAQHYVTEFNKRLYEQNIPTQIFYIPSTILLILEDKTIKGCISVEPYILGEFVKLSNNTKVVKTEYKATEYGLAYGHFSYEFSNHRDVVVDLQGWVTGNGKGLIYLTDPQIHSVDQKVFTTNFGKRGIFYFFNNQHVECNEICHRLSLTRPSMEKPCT

The term IC50 denotes the point on the concentration scale where inhibition reaches its midpoint. Low readings indicate inhibition by little substance, high ones a need for much substance. As to `C#C[C@@](C)(c1ccc(Cl)cc1)c1nc(NC(=O)c2c(F)cc(N3CCNCC3)cc2F)sc1Cl` [Example C020, (S)-N-(5-chloro-4-(2-(4-chlorophenyl)but-3-yn-2-yl)thiazol-2-yl)-2,6-difluoro-4-(piperazin-1-yl)benzamide], the half-inhibitory concentration (IC50) under setting [1] amounted to 88 nM. Still for that read-out and setting: as for `COc1ccc(C(C)(C)c2csc(NC(=O)c3ccc(C(=O)NC4CCN(C)CC4)cc3)n2)cc1` [Example B030, N1-(4-(2-(4-methoxyphenyl)propan-2-yl)thiazol-2-yl)-N4-(1-methylpiperidin-4-yl)terephthalamide], the figure is 155 nM; as for `C#C[C@@](C)(c1ccc(Cl)cc1)c1nc(NC(=O)c2c(F)cc(N3CCNCC3)cc2F)sc1Cl` (stereo in doubt) [Example C050, N-(5-chloro-4-(2-(4-chlorophenyl)but-3-yn-2-yl)thiazol-2-yl)-2,6-difluoro-4-(piperazin-1-yl)benzamide], 923 nM. Same read-out and setting: as for `C#C[C@](C)(c1ccc(Cl)cc1)c1csc(NC(=O)c2c(F)cc(N3CCN(C)CC3)cc2F)n1` [Example C010, (R)-N-(4-(2-(4-chlorophenyl)but-3-yn-2-yl)thiazol-2-yl)-2,6-difluoro-4-(4-methylpiperazin-1-yl)benzamide], the figure is 56 nM.

In turn, `CC(C)(c1ccc(Br)cc1)c1csc(NC(=O)c2ccc3[nH]ccc3c2)n1` [Example B002, N-(4-(2-(4-bromophenyl)propan-2-yl)thiazol-2-yl)-1H-indole-5-carboxamide] gave an IC50 under setting [1] of 206 nM. Compound `CC(C)(c1ccc(Br)cc1)c1csc(NC(=O)c2ccc(N3CCNCC3)nc2)n1` [Example B035, N-(4-(2-(4-bromophenyl)propan-2-yl)thiazol-2-yl)-6-(piperazin-1-yl)nicotinamide] showed an IC50 under setting [1] of 75 nM.

`COc1ccc(CNC(=O)Nc2nc(C(C)(C)c3ccc(Br)cc3)cs2)cc1F` [Example A107, 1-(4-(2-(4-bromophenyl)propan-2-yl)thiazol-2-yl)-3-(3-fluoro-4-methoxybenzyl)urea] had an IC50 of 216 nM. On to `C#C[C@](C)(c1ccc(Cl)cc1)c1csc(NC(=O)c2c(F)cc(N3CCC(N)C3)cc2F)n1` (stereo partly drawn) [Example B086], for which the IC50 under setting [1] came to 286 nM. The same measure, in the same setting: as for `COCC(C)(c1ccc(OC)cc1)c1csc(NC(=O)c2c(F)cc(N3CCNCC3)cc2F)n1` (stereo not drawn) [Example C028, 2,6-difluoro-N-(4-(1-methoxy-2-(4-methoxyphenyl)propan-2-yl)thiazol-2-yl)-4-(piperazin-1-yl)benzamide], the figure is 288 nM; as for `COCC(C)(c1ccccc1)c1csc(NC(=O)c2c(F)cc(N3CCNCC3)cc2F)n1` (stereo not drawn) [Example C004, 2,6-difluoro-N-(4-(1-methoxy-2-phenylpropan-2-yl)thiazol-2-yl)-4-(piperazin-1-yl)benzamide], 22 nM.

Consider `Cc1ccc(C(C)(C)c2csc(NC(=O)c3ccc(N4CCNCC4)cc3)n2)cc1` [Example B031, 4-(piperazin-1-yl)-N-(4-(2-(p-tolyl)propan-2-yl)thiazol-2-yl)benzamide], for which the IC50 under setting [1] was 37 nM.

Under setting [1], `COc1ccc(C(C)(C)c2csc(NC(=O)c3ccc(CN4CCNCC4)cc3)n2)cc1` [Example B040, N-(4-(2-(4-methoxyphenyl)propan-2-yl)thiazol-2-yl)-4-(piperazin-1-ylmethyl)benzamide] registered an IC50 of 93 nM.

`COc1ccc(C(C)(C)c2csc(NC(=O)c3cc(I)cc(I)c3O)n2)cc1` [Example B050, 2-hydroxy-3,5-diiodo-N-(4-(2-(4-methoxyphenyl)propan-2-yl)thiazol-2-yl)benzamide] showed an IC50 under setting [1] of 77 nM.

`COc1ccc(C(C)(C)c2csc(NC(=O)c3cccc(CN4CCNCC4)c3)n2)cc1` [Example B005, N-(4-(2-(4-methoxyphenyl)propan-2-yl)thiazol-2-yl)-3-(piperazin-1-ylmethyl)benzamide]: the IC50 under setting [1] is 215 nM. Under setting [1], `CC(C)(c1ccc(Br)cc1)c1csc(NC(=O)c2cnc(N3CCNCC3)nc2)n1` [Example B036, N-(4-(2-(4-bromophenyl)propan-2-yl)thiazol-2-yl)-2-(piperazin-1-yl)pyrimidine-5-carboxamide] returned an IC50 of 110 nM.
